The test system of data set [1] is alcohol preferring Wistar rats. Kind of data set: Alcohol, water, total fluid and food intake in alcohol preferring (P) rats, single dose level (Example 5). The format is in vivo. On the procedure: Levemopamil was administered in eight selectively-bred adult male alcohol preferring Wistar rats (hereinafter "P") obtained from the Indiana Alcohol Research Center at the University of Indiana School of Medicine.
These lines of rats have been developed genetically through selected breeding by Lumeng et al., New strains of rats with alcohol preference and nonpreference. In: Thurman et al., Eds. Alcohol and Aldehyde Metabolizing Systems. Vol. 3. New York: Academic Press, 1977. pp. 537-544. The P rats prefer to drink at least 5g/Kg body weight/day of a 10% (v/v) ethanol solution in a free-choice situation with food and water available. These rats have been widely used as an animal model of alcoholism. See, Tabakoff et al., Biochemical Pharmacology of Alcohol. Meltzer, Ed. In: Psychopharmacology: The Third Generation of Progress. New York: Raven Press, 1978. pp.1521-1526.
The criteria for classification of P rats was that the average daily intake of ethanol (10%v/v) in P rats should be equal or greater than 5g/Kg body weight/day and the ethanol to water intake ratio should be equal or greater than 2:1.
After establishing a stable baseline for alcohol and water intake, Each animal was injected twice (9:30 and 16:30 hours) with a 10 mg/Kg dosage of levemopamil or an equal volume of the vehicle. Water, alcohol and food intake were monitored.

For data set [2] the following is noted: in vivo; cited from earlier work.
In the next data set the test system is P rats. Kind of data set: Alcohol and water intake in P rats, three doses of levemopamil (Example 6). It counts as in vivo. As to the method:
Levemopamil and a vehicle were administered in eight P rats obtained from the Indiana Alcohol Research Center at the University of Indiana School of Medicine, as described in Example 5. After establishing a stable baseline for alcohol and water intake, Each animal was injected twice (9:15 and 16:00 hours) with either one of three doses of levemopamil (3.3, 10, and 20 mg/Kg) or an equal volume of the vehicle (a solution of 1 ml absolute ethanol and 4 ml distilled water. Water and alcohol intake were monitored. The amount of alcohol and water intake was recorded twice daily before each administration of vehicle or levemopamil and continued during the drug washout periods.

The conditions of data set [3]: compared with verapamil; cited from earlier work.

Consider `CC(C)C(C#N)(CCCN(C)CCc1ccccc1)c1ccccc1` (centres unmarked) [levemopamil, 2-isopropyl-5-(methylphenethylamino)-2-phenylvaleronitrile], for which the “alcohol intake or consumption” value in data set [1] (10 mg/Kg injected twice (9:30 and 16:30 hours), vs baseline and vehicle, Figure 1) is on record as “significantly attenuated”. Besides, the food intake entry in data set [1] (10 mg/Kg injected twice, Figure 4) is recorded as “unaffected”. Further, the water intake entry in data set [1] (10 mg/Kg injected twice, vs vehicle and base-line, Figure 2) is “significantly increased”; in the data set with P rats (low dose 3.3mg/Kg, injected twice, Figure 6), “did not induce a significant change”. The Total fluid intake entry in data set [1] (10 mg/Kg injected twice, vs vehicle and base-line, Figure 3) was “decreased”. Besides, the “passage of the blood/brain barrier by brain uptake index (BUI)” value in data set [2] is “more rapidly and in considerably larger amounts than does verapamil”. For the same compound, the intake of ethanol entry with P rats (10mg/Kg and 20 mg/Kg twice daily over one day, vs vehicle and base-line, Figure 5) is “significantly reduced”. Besides, the intake of water result in the data set with P rats (10mg/Kg and 20 mg/Kg twice daily over one day, vs vehicle and base-line, Figure 6) was “significantly increased”. Also, the “Alcohol intake during the drug washout periods” value with P rats (drug washout periods after dosing) is given as “returned to base-line levels”. In addition, the ethanol intake entry in the data set on P rats (low dose 3.3mg/Kg, injected twice, Figure 5) was “did not induce a significant change”. For the same compound, the cerebral availability entry in data set [3] is “significantly higher than that of the comparison compound verapamil”.

Source of the values: patent publication EP0502418A1, “Use of levemopamil for the manufacture of a medicament for the treatment of alcohol abuse” (priority 1991, dated 1992).
